Data set [1] deals with A549 non-small-cell human lung carcinoma. Briefly: In vitro antiproliferative activity (Microculture Tetrazolium Assay) on A549. The format is cell-based. To be noted: A549 cells; read-out: IC50, the concentration of cytotoxic agent that inhibits the proliferation of the treated cells by 50%. The procedure:
(§1) Three cell lines were used: • L1210 murine leukaemia • A549 non-small-cell human lung carcinoma • DU145 prostate carcinoma
(§2) L1210 murine leukaemia was used in vitro. The cells are cultured in RPMI 1640 complete culture medium containing 10% foetal calf serum, 2 mM glutamine, 50 units/ml of penicillin, 50 μg/ml of streptomycin and 10 mM Hepes, pH: 7.4. The cells are distributed on microplates and are exposed to the cytotoxic compounds for 4 doubling periods, or 48 hours. The number of viable cells is then quantified by a colorimetric assay, the Microculture Tetrazolium Assay (J. Carmichael et al., Cancer Res.; 47, 936–942 (1987)). The results are expressed as the IC50, the concentration of cytotoxic agent that inhibits the proliferation of the treated cells by 50%.

Data set [2] concerns L1210 murine leukaemia. Briefly: In vitro antiproliferative activity (Microculture Tetrazolium Assay) on L1210. Type of data set: cell-based. The note with it: L1210 cells, exposure 4 doubling periods or 48 hours; read-out: IC50, the concentration of cytotoxic agent that inhibits the proliferation of the treated cells by 50%. The procedure: as §1, §2
The test system of data set [3] is DU145 prostate carcinoma. The data set is described as follows: In vitro antiproliferative activity (Microculture Tetrazolium Assay) on DU145. The format is cell-based. To be noted: DU 145 cells; read-out: IC50, the concentration of cytotoxic agent that inhibits the proliferation of the treated cells by 50%. The procedure:
as §1, §2

Each structure is given as a SMILES string.

A word on the melting point: it is the temperature, or range, at which the solid turns liquid.

Regarding `Cn1c(=O)c2c3[nH]c4ccccc4c3c3c(=O)oc(=O)c3c2c1=O`, the melting point is 294 °C (dec.).

On to `Cn1c(=O)c2c3[nH]c4ccccc4c3c3c(=O)n(C)c(=O)c3c2c1=O` [Example 2, 2,5-dimethyl-1H-dipyrrolo[3,4-a:3,4-c]carbazole-1,3,4,6(2H,5H,7H)-tetrone], for which the IC50 in data set [1] came to 4.7 µM; in data set [2], 6.8 µM; in data set [3], 5.4 µM.

Source of the values: US7151108B2, “[3,4-a:3,4-c]carbazole compounds” (Les Laboratories Servier, priority 2002, dated 2006).
